Data as given in US20230357179A1, “RAF KINASE INHIBITORS AND METHODS OF USE THEREOF” (Deciphera Pharmaceuticals, LLC, priority 2021, published 2023).

Legend:
Format in all cases: cell-based
Miapaca-2 cells = test: MiaPaca-2 combination cell proliferation assay (1) with cobimetinib, 96-well; settings: inhibition of cell proliferation, read-out: MiaPaca-2 Combo (1) IC50
Method: MiaPaca-2 Combination Cell proliferation Assay (1)
Miapaca-2 cells (catalog #CRL-1420) are obtained from the American Type Culture Collect (ATCC, Manassas, VA). Briefly, cells were grown in DMEM supplemented with 10% characterized fetal bovine serum (Invitrogen, Carlsbad, CA), 2.5% New Zealand sourced horse serum and 1% Penicillin/Streptomycin/L-Glutamine at 37° C., 5% CO2, and 95% humidity. Cells are expanded until reaching 70-95% confluency at which point they are subcultured or harvested for assay use. A serial dilution of test compound was dispensed into multiple 96-well black clear bottom plates in triplicate. A serial dilution of complete growth medium containing cobimetinib was prepared at twice the final concentration and 100 μL was dispensed across the test compound titration in triplicate. Three thousand cells are added per well in 100 μL complete growth medium in each 96-well plate. Plates are incubated for 67-72 hours at 37° C., 5% CO2, and 95% humidity. At the end of the incubation, 40 μL of a 440 μM solution of resazurin (Sigma, St. Louis, MO) in PBS is added to each well of the plate and plates are incubated for an additional 5-7 hours at 37° C., 5% CO2, and 95% humidity. Plates are read on a Synergy2 or equivalent reader (Biotek, Winooski VT) using an excitation of 540 nm and an emission of 600 nm. Drug synergy was assessed via BLISS analysis in the Combenefit software (Cancer Research UK Cambridge Institute, Cambridge, UK). Data is analyzed using Prism software (GraphPad, San Diego, CA) to calculate IC50 values. Shifts in test compound IC50 values are reported from top-constrained combination therapy curves.

WM3928 cells = test: WM3928 cell proliferation assay (2), resazurin, 384-well; settings: inhibition of cell proliferation, 67-72 hours
Method: WM3928 Cell Proliferation Assay (2)
WM3928 cells (#WM3928-01-0001) are obtained from Rockland Immunochemicals Inc (Gilbertsville, PA). Briefly, cells were grown in MCDB 153 medium (Sigma, #M7403, St. Louis, MO) supplemented with 20% Leibovitz's L-15 (ThermoFisher #11415-064, Waltham, MA), 2% heat inactivated fetal bovine serum (ThermoFisher, #A3840001, Waltham, MA), 5 μg/mL Insulin (Bovine Pancreas) (Sigma, #I0516, St. Louis, MO), 1.68 mM Calcium Chloride (Sigma, #C-34006, St. Louis, MO) and 1% Penicillin/Streptomycin/L-Glutamine (ThermoFisher #10378016, Waltham, MA) at 37° C., 5% CO2, and 95% humidity. Cells are expanded until reaching 70-95% confluency at which point they are sub-cultured or harvested for assay use. Using the Beckman Coulter Echo 650, a serial dilution of test compound is dispensed into a 384-well black clear bottom plate in triplicate. Seven hundred fifty cells are added per well in 50 μL complete growth medium in the 384-well plate. Plates are incubated for 67-72 hours at 37° C., 5% CO2, and 95% humidity. At the end of the incubation, 10 μL of a 440 μM solution of resazurin (Sigma, #199303, St. Louis, MO) in PBS is added to each well of the plate and plates are incubated for an additional 3-6 hours at 37° C., 5% CO2, and 95% humidity. Plates are read on a Synergy2 or equivalent reader (Biotek, Winooski VT) using an excitation of 540 nm and an emission of 600 nm. Data is analyzed using Prism software (GraphPad, San Diego, CA) to calculate IC50 values.

A375 cells = test: A375 cell proliferation assay (2), resazurin, 384-well; settings: Homo sapiens, A-375, inhibition of cell proliferation, 67-72 h
Method: A375 Cell Proliferation Assay (2)
A375 cells (catalog (#CRL-1619) are obtained from the American Type Culture Collect (ATTC, Manassas, VA). Briefly, cells were grown in DMEM High Glucose supplemented with 10% characterized fetal bovine serum (Invitrogen, Carlsbad, CA) and 1% Penicillin/Streptomycin/L-Glutamine at 37° C., 5% CO2, and 95% humidity. Cells are expanded until reaching 70-95% confluency at which point they are sub-cultured or harvested for assay use. Using the Beckman Coulter Echo 650, a serial dilution of test compound is dispensed into a 384-well black clear bottom plate in triplicate. Six hundred twenty-five cells are added per well in 50 μL complete growth medium in the 384-well plate. Plates are incubated for 67-72 h at 37° C., 5% CO2, and 95% humidity. At the end of the incubation, 10 μL of a 440 μM solution of resazurin (Sigma, St. Louis, MO) in PBS is added to each well of the plate and plates are incubated for an additional 3-6 h at 37° C., 5% CO2, and 95% humidity. Plates are read on a Synergy2 or equivalent reader (Biotek, Winooski VT) using an excitation of 540 nm and an emission of 600 nm. Data is analyzed using Prism software (GraphPad, San Diego, CA) to calculate IC50 values.

WM3629 cells = test: WM3629 cell proliferation assay (1), resazurin, 96-well; settings: inhibition of cell proliferation
Method: WM3629 Cell Proliferation Assay (1)
WM3629 cells (#WM3629-01-0001) are obtained from Rockland Immunochemicals Inc (Gilbertsville, PA). Briefly, cells were grown in MCDB 153 medium (Sigma, #M7403, St. Louis, MO) supplemented with 20% Leibovitz's L-15 (ThermoFisher #11415-064, Waltham, MA), 2% heat inactivated fetal bovine serum (ThermoFisher, #A3840001, Waltham, MA), 5 μg/mL Insulin (Bovine Pancreas) (Sigma, #I0516, St. Louis, MO), 1.68 mM Calcium Chloride (Sigma, #C-34006, St. Louis, MO) and 1% Penicillin/Streptomycin/L-Glutamine (ThermoFisher #10378016, Waltham, MA) at 37° C., 5% CO2, and 95% humidity. Cells are expanded until reaching 70-95% confluency at which point they are subcultured or harvested for assay use. A serial dilution of test compound is dispensed into a 96-well black clear bottom plate in triplicate. Four thousand five hundred cells are added per well in 200 μL complete growth medium in the 96-well plate. Plates are incubated for 67-72 hours at 37° C., 5% CO2, and 95% humidity. At the end of the incubation, 40 μL of a 440 μM solution of resazurin (Sigma, #199303, St. Louis, MO) in PBS is added to each well of the plate and plates are incubated for an additional 6-7 hours at 37° C., 5% CO2, and 95% humidity. Plates are read on a Synergy2 or equivalent reader (Biotek, Winooski VT) using an excitation of 540 nm and an emission of 600 nm. Data is analyzed using Prism software (GraphPad, San Diego, CA) to calculate IC50 values.

SMILES	IC50 (Miapaca-2 cells) [nM]	IC50 (WM3629 cells) [nM]	other results
Cc1cc(F)c(NC(=O)NCCC2(C(F)(F)F)CC2)cc1-c1cc(OCCO)nc(C2CCOCC2)c1 [Example 24]	≤ 100	–	–
CC(=O)Nc1cc(-c2cc(-c3cc(NC(=O)NCCC4(C)CC4)c(F)cc3C)cc(OCCO)n2)ccn1 [Example 33]	≤ 100	–	–
CC(=O)Nc1cc(-c2cc(-c3cc(NC(=O)NCCC4(C)CC4)c(F)cc3C)cc(C)n2)ccn1 [Example 55]	≤ 100	–	–
CC(=O)Nc1cc(-c2cc(-c3cc(NC(=O)NC4CCC(F)(F)CC4)c(F)cc3C)cc(OCCO)n2)ccn1 [Example 63]	≤ 100	–	–
Cc1ccc(NC(=O)N2CC[C@H](C(F)(F)F)C2)cc1-c1cncc(-c2cc(NC(=O)C3CC3)ncn2)c1 [Example 195]	–	–	IC50 (WM3928 cells): ≤ 100 nM; IC50 (A375 cells): 100 to 500 nM
Cc1cc(F)c(NC(=O)N2CC[C@H](C(F)(F)F)C2)cc1-c1cncc(-c2cc(NC(=O)C3CC3)ncn2)c1 [Example 216]	–	–	IC50 (WM3928 cells): ≤ 100 nM; IC50 (A375 cells): 100 to 500 nM
Cc1ccc(NC(=O)N2CC[C@@H](C(C)C)C2)cc1-c1cncc(-c2cc(NC(=O)C3CC3)ncn2)c1 [Example 217]	–	≤ 100	–
Cc1ccc(NC(=O)N2CC[C@H](C(C)C)C2)cc1-c1cncc(-c2cc(NC(=O)C3CC3)ncn2)c1 [Example 221]	–	≤ 100	–

Second part, led by results:

IC50 (Miapaca-2 cells) [nM]	SMILES	IC50 (WM3629 cells) [nM]	other results
100 to 500	Cc1cc(F)c(NC(=O)NCCC2(C)CC2)cc1-c1cc(OCCO)nc(-c2ccnc(NC(=O)C3CC3)c2)c1 [Example 76]	–	–
100 to 500	Cc1ccc(NC(=O)N2CC[C@H](C(F)(F)F)C2)cc1-c1cccc(-c2cc(NC(=O)C3CC3)ncn2)c1 [Example 200]	≤ 100	–
100 to 500	Cc1ccc(NC(=O)N2CC[C@@H](C(F)(F)F)C2)cc1-c1cccc(-c2cc(NC(=O)C3CC3)ncn2)c1 [Example 201]	≤ 100	–
